One assay concerns human hepatoma Huh-7 cell line harboring a HCV replicon. Nature of the assay: HCV replicon assay (inhibition of viral replication, luciferase readout). Type of assay: cell-based. As to conditions: Hepatitis C virus, 72 h, Huh-7 HCV replicon cells, 3 days incubation. The procedure, abridged:
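Read-outs: luciferase luminescence for replication inhibition, corrected by ITMN-191 (100% inhibition) wells, and calcein AM fluorescence for cytotoxicity. Cells were treated for 3 days at 37 °C with ten 3-fold compound dilutions in 0.44% final DMSO. Percent inhibition relative to DMSO was fitted with a Hill equation to give EC50 and CC50.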
As to `CC1CCC(C(=O)N(c2cc(C#CC(C)(C)C)sc2C(=O)O)[C@H]2CC[C@H](Oc3cncc(CN4CCCC4)c3)CC2)CC1` (stereo partly drawn) [Compound 193, 3-[[-4-(5-pyrrolidin-1-ylmethyl-pyridin-3-yloxy)-cyclohexyl]-(4-methyl-cyclohexanecarbonyl)-amino]-5-(3,3-dimethyl-but-1-ynyl)-thiophene-2-carboxylic acid], testing at 2 µM gave an inhibition of 100%.

`Cc1nc(S(=O)(=O)N2CC[C@H](N(c3cc(C#CC(C)(C)C)sc3C(=O)O)C(=O)[C@H]3CC[C@H](C)CC3)C2)cn1C` [Compound 212, 5-(3,3-Dimethyl-but-1-ynyl)-3-[[1-(1,2-dimethyl-1H-imidazole-4-sulfonyl)-pyrrolidin-3-yl]-(4-methyl-cyclohexanecarbonyl)-amino]-thiophene-2-carboxylic acid]: the inhibition – broadly, the drop in the measured response relative to a control, in per cent – at 2 µM was found to be 99.3%.

Take `CC(C)(C)C#Cc1cc(N(C(=O)[C@H]2CC[C@H](C)CC2)[C@H]2CC[C@@H](Oc3ccnnc3)CC2)c(C(=O)O)s1` [Compound 183, 5-(3,3-Dimethylbut-1-ynyl)-3-(4-methyl-N-(4-(pyridazin-4-yloxy)cyclohexyl)cyclohexanecarboxamido)thiophene-2-carboxylic acid]: 2 µM produced 100% inhibition.

Consider `C[C@@H](CCOc1cc(CN(C)C)ccn1)N(c1cc(C#CC(C)(C)C)sc1C(=O)O)C(=O)[C@H]1CC[C@H](C)CC1` [Compound 61, 3-[[3-(4-dimethylaminomethyl-pyridin-2-yloxy)-1-(S)-methyl-propyl]-(trans-4-methyl-cyclohexanecarbonyl)-amino]-5-(3,3-dimethyl-but-1-ynyl)-thiophene-2-carboxylic acid], for which testing at 2 µM gave an inhibition of 99.9%.

The compound `CC1CCC(C(=O)N(c2cc(C#CC(C)(C)C)sc2C(=O)O)[C@H]2CC[C@H](Oc3ccnc(CN(C)C)c3)CC2)CC1` (stereo partly drawn) [Compound 200, 3-[[-4-(2-dimethylaminomethyl-pyridin-4-yloxy)-cyclohexyl]-(4-methyl-cyclohexanecarbonyl)-amino]-5-(3,3-dimethyl-but-1-ynyl)-thiophene-2-carboxylic acid] had an inhibition at 2 µM of 100%.

`CC(C)(C)C#Cc1cc(N(C(=O)[C@H]2CC[C@H](C)CC2)C2CCC(Oc3nc(CN4CCCC4)cs3)CC2)c(C(=O)O)s1` (stereo partly drawn) [Compound 155, 5-(3,3-Dimethylbut-1-ynyl)-3-(4-methyl-N-(4-(4-(pyrrolidin-1-ylmethyl)thiazol-2-yloxy)cyclohexyl)cyclohexanecarboxamido)thiophene-2-carboxylic acid]: the inhibition at 2 µM amounted to 100%.

Take `CC(C)(C)C#Cc1cc(N(C(=O)[C@H]2CC[C@H](C)CC2)[C@H]2CCN(S(=O)(=O)c3ccsc3)C2)c(C(=O)O)s1` [Compound 211, 5-(3,3-Dimethyl-but-1-ynyl)-3-{(4-methyl-cyclohexanecarbonyl)-[1-(thiophene-3-sulfonyl)-pyrrolidin-3-yl]-amino}-thiophene-2-carboxylic acid]: 2 µM produced 99.7% inhibition.

Compound `CC1=CCC(C(=O)N(c2cc(C#CC(C)(C)C)sc2C(=O)O)[C@H]2CC[C@H](O[C@H]3CCOC3)CC2)[C@H](C)C1` (stereo partly drawn) [Compound 304, 5-(3,3-dimethyl-but-1-ynyl)-3-{(4,6R-dimethyl-cyclohex-3-enecarbonyl)-[4-(tetrahydro-furan-3S-yloxy)-trans-cyclohexyl]-amino}-thiophene-2-carboxylic acid] registered an inhibition at 2 µM of 100%.

Consider `Cc1nc(S(=O)(=O)N2CCC(N(c3cc(C#CC(C)(C)C)sc3C(=O)O)C(=O)[C@H]3CC[C@H](C)CC3)CC2)cn1C` [Compound 206, 5-(3,3-Dimethyl-but-1-ynyl)-3-[[1-(1,2-dimethyl-1H-imidazole-4-sulfonyl)-piperidin-4-yl]-(4-methyl-cyclohexanecarbonyl)-amino]-thiophene-2-carboxylic acid], for which the inhibition at 2 µM was 100%.

As to `CC1CCC(C(=O)N(c2cc(C#CC(C)(C)C)sc2C(=O)O)[C@H]2CC[C@H](Oc3cnccc3CN3CCCC3)CC2)CC1` (stereo partly drawn) [Compound 196, 3-[[-4-(4-pyrrolidin-1-ylmethyl-pyridin-3-yloxy)-cyclohexyl]-(4-methyl-cyclohexanecarbonyl)-amino]-5-(3,3-dimethyl-but-1-ynyl)-thiophene-2-carboxylic acid], the inhibition at 2 µM is 100%.

`CN(C)c1nc(O[C@H]2CC[C@H](N(c3cc(C#CC(C)(C)C)sc3C(=O)O)C(=O)[C@H]3CC[C@H](C)CC3)CC2)ncc1F` [Compound 151, 3-(N-(4-(4-(Dimethylamino)-5-fluoropyrimidin-2-yloxy)cyclohexyl)-4-methylcyclohexanecarboxamido)-5-(3,3-dimethylbut-1-ynyl)thiophene-2-carboxylic acid]: the inhibition at 2 µM was 99.4%.

Regarding `CC(C)(C)C#Cc1cc(N(C(=O)[C@H]2CC[C@H](C)CC2)[C@H]2CC[C@H](Oc3ccc4nccn4n3)CC2)c(C(=O)O)s1` [Compound 176, Sodium 5-(3,3-dimethylbut-1-ynyl)-3-(N-(4-(imidazo[1,2-b]pyridazin-6-yloxy)cyclohexyl)-4-methylcyclohexanecarboxamido)thiophene-2-carboxylate], the inhibition at 2 µM is 99.8%.

As to `CC1CCC(C(=O)N(c2cc(C#CC(C)(C)C)sc2C(=O)O)[C@H]2CC[C@H](Oc3cc(CN(C)CCO)ccn3)CC2)CC1` (stereo partly drawn) [Compound 191, 3-[[-4-[4-{[(2-hydroxy-ethyl)-methyl-amino]-1-ylmethyl}-pyridin-2-yloxy]-cyclohexyl]-(4-methyl-cyclohexanecarbonyl)-amino]-5-(3,3-Dimethyl-but-1-ynyl)-thiophene-2-carboxylic acid], the inhibition at 2 µM was 100%.

The compound `CC1=CC[C@@H](C(=O)N(c2cc(C#CC(C)(C)C)sc2C(=O)O)[C@H]2CC[C@H](O[C@H]3CCOC3)CC2)CC1` [Compound 333] displayed an inhibition at 2 µM of 100%.

Compound `CC(C)(C)C#Cc1cc(N(C(=O)[C@H]2CC[C@H](C)CC2)[C@H]2CC[C@H](Sc3nncn3C3CC3)CC2)c(C(=O)O)s1` [Compound 90, 3-(N-(4-(4-Cyclopropyl-4H-1,2,4-triazol-3-ylthio)cyclohexyl)-4-methylcyclohexanecarboxamido)-5-(3,3-dimethylbut-1-ynyl)thiophene-2-carboxylic acid] registered an inhibition at 2 µM of 100%.

`CC(C)(C)C#Cc1cc(N(C(=O)[C@H]2CC[C@H](C)CC2)[C@@H]2CCC(Oc3ccccn3)C(CN3CCCC3)C2)c(C(=O)O)s1` (stereo partly drawn) [Compound 171, Sodium 5-(3,3-dimethylbut-1-ynyl)-3-(4-methyl-N-((1R)-4-(pyridin-2-yloxy)-3-(pyrrolidin-1-ylmethyl)cyclohexyl)cyclohexanecarboxamido)thiophene-2-carboxylate] displayed an inhibition at 2 µM of 99.7%.

For `CC(C)(C)C#Cc1cc(N(C(=O)[C@H]2CC[C@H](C)CC2)[C@H]2CC[C@@H](Sc3nncs3)CC2)c(C(=O)O)s1` [Compound 105, 3-(N-(4-(1,3,4-Thiadiazol-2-ylthio)cyclohexyl)-4-methylcyclohexanecarboxamido)-5-(3,3-dimethylbut-1-ynyl)thiophene-2-carboxylic acid], the inhibition at 2 µM was determined as 99.9%.

The same assay, now with this note: Huh-7 HCV replicon cells, 3 days incubation.
As for “5-(3,3-Dimethyl-but-1-ynyl)-3-{(trans-4-methyl-cyclohexanecarbonyl)-[trans-4-(1-oxy-pyridin-3-yloxy)-cyclohexyl]-amino}-thiophene-2-carboxylic acid [Compound 24]”, the % inhibition – broadly, how much of the control response was suppressed – at 2μM is on record as 99.9%.

The record behind these values is patent US8569302B2, “Inhibitors of flaviviridae viruses” (Gilead Sciences, Inc., priority 2009, dated 2013).
